≈ marks a conversion by molar mass, not a printed value. Where “and” joins values, the source holds several entries; their conditions need not be identical. Equal values may be shown once. Read-outs that look alike come from different tables or passages of the source.
How the values were obtained:
[1] = tested on: Corynebacterium S003 strain (Δldh, Δpta-ackA, ΔpoxB, and ΔactA); assay: microbe, parasite or virus in culture; details: for IC50: Corynebacterium
Experimental: In particular, for a seed culture, the strain was streaked on an active plate including agar 5 g/L of yeast extract, 10 g/L of beef extract, 10 g/L of polypeptone, 5 g/L of NaCl, and 20 g/L of agar, and then cultured at a temperature of 30° C. for about 48 hours. A single colony obtained therefrom was inoculated in 5 ml of a BHIS medium (including 37 g/L of brain-heart infusion agar, 91 g/L of D-sorbitol, pH 7.0) and grown overnight at a temperature of 30° C.
1 ml of the obtained culture solution was inoculated in a 25 ml of BHIS in a 250 ml flask and grown until an OD600 value was 5.0. The culture solution was centrifuged, a supernatant thereof was removed to collect the microorganism only, and the microorganism was washed with CGXII minimal medium. The CGXII minimal medium includes 20 g/L of (NH4)2SO4, 5 g/L of urea, 1 g/L of KH2PO4, 1 g/L of K2HPO4, 0.25 g/L of MgSO4.7H2O, 10 mg/L of CaCl2, 10 mg/L of FeSO4.7H2O, 0.1 mg/L of MnSO4.H2O, 1 mg/L of ZnSO4.7H2O, 0.2 mg/L of CuSO4.5H2O, […], 0.2 mg/L of biotin, 42 g/L of 3-morpholinopropanesulfonic acid (MOPS), and 4% (w/v) of glucose.

[2] = tested on: S003/pGEX4-NCgl0275 strain; assay: microbe, parasite or virus in culture
From the text: A strain that overexpresses the fourteen SRGs was obtained by cloning the SRGs to Xhol/BamHI restriction site of a pGEX-4 vector to be expressed under an influence of a Ptuf promoter as described in “2. Preparation of pGEX_Ptuf::Ncgl1853, Ncgl1855, Ncgl2988, Ncgl2425, Ncgl2404, Ncgl0368, Ncgl2877, Ncgl0275, Ncgl2359, Ncgl1525, Ncgl0976, Ncgl2673, Ncgl2297, and Ncgl1524 vector” under “Material and Method”, and then introducing each of the vectors thus obtained to a Corynebacterium glutamicum S003 strain.

[3] = tested on: Corynebacterium glutamicum S003 strain; details: 0.0625 M succinic acid, anaerobic, 5 hours, vs control without succinic acid
Experimental: After isolating total RNA from the cultured cells by using RNeasy midi kit (Qiagen), a transciptome was analyzed by using a Corynebacterium glutamicum ATCC 13032, 3×20K chip microarray (MYcroarray.com) according the protocol of the same manufacturer. 6134 unique probes are immobilized on the chip, where each of the probes is a three-times repeat.

[4] = 0.25 M succinic acid, anaerobic, S003 strain

Compound: O=C(O)CCC(=O)O [succinic acid]
- glucose uptake rate compared with control group ([1]; 0.0625 M succinic acid, after 15 hours): the same
- glucose uptake ([1]; 0.0625 M succinic acid, within the first 5 hours): suppressed
- decrease of glucose uptake rate [1, 4]: about 66.4%
- succinic acid production [1, 4]: almost not produced
- IC50 ([1]; read-out: IC50 value of the glucose uptake rate): 13 mg/mL (≈ 110 mM)
- IC50 ([1]; read-out: IC50 value of the succinic acid production): 100 mM and 11800 µg/mL
- IC50 ([2]; Corynebacterium glutamicum, read-out: IC50 value of the glucose uptake rate): 70.8 mg/mL (≈ 600 mM)
- increase of IC50 compared to the control group ([2]; S003/pGEX4-NCgl0275 strain vs control): about 5.45 fold
- Fold of reduction of expression, Ncgl0275 (whiB4) [3]: 1.56 fold
- Fold of reduction of expression, Ncgl0368 [3]: 1.60 fold
- Fold of reduction of expression, Ncgl1524 (tpi/tpiA) [3]: 1.700 fold
- Fold of reduction of expression, Ncgl1853 (nrdR) [3]: 4.24 fold
- Fold of reduction of expression, Ncgl1855 (lexA) [3]: 2.44 fold
- Fold of reduction of expression, Ncgl2297 (mdh) [3]: 1.700 fold
- Fold of reduction of expression, Ncgl2359 [3]: 1.52 fold
- Fold of reduction of expression, Ncgl2404 [3]: 1.73 fold
- Fold of reduction of expression, Ncgl2425 [3]: 1.74 fold
- Fold of reduction of expression, Ncgl2673 (fda) [3]: 1.820 fold
- Fold of reduction of expression, Ncgl2877 [3]: 1.57 fold
- Fold of reduction of expression, Ncgl2988 (parB) [3]: 1.91 fold
- reduction of expression of nine expected transcription regulator genes (NCgl1853, NCgl1855, NCgl0368, NCgl0275, NCgl2359, NCgl2404, NCgl2425, NCgl2988, NCgl2877) [3]: ≥ 1.5 fold

Reference: patent US20150329883A1 (Samsung Electronics Co., Ltd., priority 2014, published 2015)
